Assay: Henry solubility constant Hcp at 298.15 K (mol/(m3 Pa))
Details: reference: Copolovici and Niinemets (2015)

SMILES	Henry solubility constant Hcp
CC(=O)O[C@H]1C[C@H]2CC[C@]1(C)C2(C)C [bornyl acetate]	0.00038
C=C1[C@H]2C[C@H]3[C@@H](C(C)C)CC[C@]1(C)[C@H]3C2 [isosativene]	0.00039
C=CC(C)(O)CC/C=C(\C)CCC=C(C)C (stereo not drawn) [nerolidol]	0.00032
C=C(C)C1CCC2=CCCC(C)C2(C)C1 (stereo not drawn) [valencene]	0.00032
CC1=CCC23C[C@H]1C(C)(C)[C@H]2CC[C@@H]3C [α-cedrene]	0.00028
C=C/C(C)=C/C/C=C(\C)CCC=C(C)C [α-farnesene]	0.00034
C/C1=C\CC/C(C)=C/CC(C)(C)/C=C/C1 [α-humulene]	0.00029
CC1=CCC2C3C1C2(C)CCCC3(C)C (stereo not drawn) [α-longipinene]	0.00034
CC1=CCCC2(C)C3CCC12CC3(C)C (stereo not drawn) [α-neoclovene]	0.00029
C=C1CC/C=C(\C)CC[C@H]2[C@H]1CC2(C)C [β-caryophyllene]	0.00037
C=C1CCCC2(C)C3CCC12CC3(C)C (stereo not drawn) [β-neoclovene]	0.00029
C=C(C)[C@H]1C=C2[C@H](C)CC[C@@H]2[C@H](C)CC1 [γ-gurjunene]	0.00033
CC1C=CCC2(C)C3CCC12CC3(C)C (stereo not drawn) [γ-neoclovene]	0.00029

Source: Sander's compilation of Henry's law constants (doi:10.1016/j.chemosphere.2015.07.075)
